Assay results: US8017612B2, “Piperazine compound and use thereof as a HCV polymerase inhibitor” (priority 2006, dated 2011)

Columns and labels:
[1] = biological target: T1, HCV polymerase (NS5B) type 1a (Hepatitis C virus genotype 1a, UniProt P26664); assay: Assay of enzyme (HCV polymerase) inhibitory activity, type 1a enzyme; assay type: biochemical, HCV type 1a (cloned from the blood of patients); settings: HCV polymerase inhibitory activity IC50, 1a, type 1a enzyme
T1 construct: made in house; host or cells: Escherichia coli (by the 'similar method' of the 1b enzyme)
Method in brief: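 Patient-derived type 1a NS5B (C-terminal 47-aa deletion, His-tagged, E. coli-expressed) at 1.5 μg/ml was reacted with 5 μg/ml 3′UTR-containing substrate RNA, 50 μM ATP/GTP/CTP, 2 μM UTP plus [3H]UTP, pH 7.5, 25° C for 60 min. TCA-precipitated RNA radioactivity was counted; IC50 from ± compound.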

[2] = biological target: T2, HCV polymerase (NS5B) type 1b (Hepatitis C virus genotype 1b, UniProt P26663); assay: Assay of enzyme (HCV polymerase) inhibitory activity, type 1b enzyme; assay type: biochemical, HCV BK strain (type 1b); settings: HCV polymerase inhibitory activity IC50, 1b, type 1b enzyme
T2 construct: a region encoding NS5B (J Virol 1991 March, 65(3), 1105-13, 544 amino acids after deletion of 47 amino acids on the C-terminal); 6xHis (C); made in house; host or cells: Escherichia coli
Method in brief: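 NS5B from HCV BK strain (type 1b), C-terminal 47 aa deleted, C-terminal His6-tagged, E. coli-expressed, 0.5 μg/ml, with ~450 nt substrate RNA carrying the 3′ UTR (polyU, 3′X) at 5 μg/ml. Incubation 60 min at 25 °C with 50 μM ATP/GTP/CTP, 2 μM UTP plus [3H]UTP, pH 7.5 Tris.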

Q: With `CCC(F)(F)c1ccc(CNC(=O)[C@H]2CN(C(=O)/C=C/C(=O)O)CCN2S(=O)(=O)c2ccc(OC(F)(F)F)cc2)cc1` [Example 667, (E)-4-[(R)-3-[4-(1,1-difluoro-propyl)-benzylcarbamoyl]-4-(4-trifluoromethoxy-benzenesulfonyl)-piperazin-1-yl]-4-oxo-but-2-enoic acid] as the compound, how does the IC50 [1] read?
A: Its IC50 is greater than 1000 nM.

Q: What about the IC50 [2] of the same compound?
A: The IC50 was 100 to 1000 nM.

Q: What does the source list for `CC(C)(C)c1ccc(CNC(=O)[C@H]2CN(C(=O)/C=C/C(=O)O)CCN2S(=O)(=O)c2ccc(OC(F)(F)F)cc2)cc1` [Example 668, (E)-4-[(R)-3-(4-tert-butyl-benzylcarbamoyl)-4-(4-trifluoromethoxy-benzenesulfonyl)-piperazin-1-yl]-4-oxo-but-2-enoic acid]?
A: IC50 [1]: > 1000 nM; IC50 [2]: > 1000 nM

Q: With `CC(=O)N1CCN(S(=O)(=O)c2ccc(OC(F)(F)F)cc2)[C@@H](C(=O)NC[C@H]2CC[C@H](C(=O)O)CC2)C1` [Example 669, trans-4-({[(R)-4-acetyl-1-(4-trifluoromethoxy-benzenesulfonyl)-piperazine-2-carbonyl]-amino}-methyl)-cyclohexanecarboxylic acid] as the compound, how does the IC50 [1] read?
A: Its IC50 is greater than 1000 nM.

Q: And the IC50 [2]?
A: The IC50 was greater than 1000 nM.

Q: With `CC(=O)N1CCC(CNC(=O)[C@H]2CN(C(C)=O)CCN2S(=O)(=O)c2ccc(OC(F)(F)F)cc2)CC1` [Example 670, (R)-4-acetyl-1-(4-trifluoromethoxy-benzenesulfonyl)-piperazine-2-carboxylic acid (1-acetyl-piperidin-4-ylmethyl)-amide] as the compound, how does the IC50 [1] read?
A: The IC50 was greater than 1000 nM.

Q: And the IC50 [2]?
A: Its IC50 is greater than 1000 nM.

Q: Which results are given for `COc1ccccc1CCNC(=O)[C@H]1CN(C(C)=O)CCN1S(=O)(=O)c1ccc(OC(F)(F)F)cc1` [Example 671, (R)-4-acetyl-1-(4-trifluoromethoxy-benzenesulfonyl)-piperazine-2-carboxylic acid [2-(2-methoxy-phenyl)-ethyl]-amide]?
A: IC50 [1]: > 1000 nM; IC50 [2]: > 1000 nM

Q: With `COc1cccc(CCNC(=O)[C@H]2CN(C(C)=O)CCN2S(=O)(=O)c2ccc(OC(F)(F)F)cc2)c1` [Example 672, (R)-4-acetyl-1-(4-trifluoromethoxy-benzenesulfonyl)-piperazine-2-carboxylic acid [2-(3-methoxy-phenyl)-ethyl]-amide] as the compound, how does the IC50 [1] read?
A: Its IC50 is greater than 1000 nM.

Q: What about the IC50 [2] of the same compound?
A: The IC50 was greater than 1000 nM.

Q: `COc1ccc(CCNC(=O)[C@H]2CN(C(C)=O)CCN2S(=O)(=O)c2ccc(OC(F)(F)F)cc2)cc1` [Example 673, (R)-4-acetyl-1-(4-trifluoromethoxy-benzenesulfonyl)-piperazine-2-carboxylic acid [2-(4-methoxy-phenyl)-ethyl]-amide] was tested. Which IC50 [1] did it give?
A: Its IC50 is greater than 1000 nM.

Q: And the IC50 [2]?
A: Its IC50 is greater than 1000 nM.

Q: With `CC(=O)N1CCN(S(=O)(=O)c2ccc(OC(F)(F)F)cc2)[C@@H](C(=O)NCCc2cccc(O)c2)C1` [Example 674, (R)-4-acetyl-1-(4-trifluoromethoxy-benzenesulfonyl)-piperazine-2-carboxylic acid [2-(3-hydroxy-phenyl)-ethyl]-amide] as the compound, how does the IC50 [1] read?
A: The IC50 was greater than 1000 nM.

Q: And the IC50 [2]?
A: Its IC50 is greater than 1000 nM.

Q: `CC(=O)N1CCN(S(=O)(=O)c2ccc(OC(F)(F)F)cc2)[C@@H](C(=O)NCCc2ccc(O)cc2)C1` [Example 675, (R)-4-acetyl-1-(4-trifluoromethoxy-benzenesulfonyl)-piperazine-2-carboxylic acid [2-(4-hydroxy-phenyl)-ethyl]-amide] was tested. Which IC50 [1] did it give?
A: Its IC50 is greater than 1000 nM.

Q: And the IC50 [2]?
A: The IC50 was greater than 1000 nM.

Q: Which IC50 [1] does the source give for `CCC(F)(F)c1ccc(CNC(=O)[C@H]2CN(c3cnc4[nH]cnc4n3)CCN2S(=O)(=O)c2ccc(OC(F)(F)F)cc2)cc1` [Example 676, (R)-4-(1H-imidazo[4,5-b]pyrazin-5-yl)-1-(4-trifluoromethoxy-benzenesulfonyl)-piperazine-2-carboxylic acid 4-(1,1-difluoro-propyl)-benzylamide] here?
A: The IC50 was less than 100 nM.

Q: And the IC50 [2]?
A: The IC50 was less than 100 nM.

Q: What does the source list for `CCC(F)(F)c1ccc(CNC(=O)[C@H]2CN(C(=O)NCC(=O)O)CCN2S(=O)(=O)c2ccc(OC(F)(F)F)cc2)cc1` [Example 677, {[(R)-3-[4-(1,1-difluoro-propyl)-benzylcarbamoyl]-4-(4-trifluoromethoxy-benzenesulfonyl)-piperazine-1-carbonyl]-amino}-acetic acid]?
A: IC50 [1]: > 1000 nM; IC50 [2]: > 1000 nM

Q: Which results are given for `CCC(F)(F)c1ccc(CNC(=O)[C@H]2CN(C(=O)CC(=O)O)CCN2S(=O)(=O)c2ccc(OC(F)(F)F)cc2)cc1` [Example 678, 3-[(R)-3-[4-(1,1-difluoro-propyl)-benzylcarbamoyl]-4-(4-trifluoromethoxy-benzenesulfonyl)-piperazin-1-yl]-3-oxo-propionic acid]?
A: IC50 [1]: > 1000 nM; IC50 [2]: > 1000 nM

Q: Which IC50 [1] does the source give for `CCC(F)(F)c1ccc(CNC(=O)[C@H]2CN(C(=O)C(=O)O)CCN2S(=O)(=O)c2ccc(OC(F)(F)F)cc2)cc1` [Example 679, [(R)-3-[4-(1,1-difluoro-propyl)-benzylcarbamoyl]-4-(4-trifluoromethoxy-benzenesulfonyl)-piperazin-1-yl]-oxo-acetic acid] here?
A: Its IC50 is greater than 1000 nM.

Q: What about the IC50 [2] of the same compound?
A: Its IC50 is greater than 1000 nM.

Q: Which IC50 [1] does the source give for `CCCn1ccc(CNC(=O)[C@H]2CN(c3cnc4cncnc4n3)CCN2S(=O)(=O)c2ccc(OC(F)(F)F)cc2)cc1=O` [Example 680, (R)-4-pteridin-7-yl-1-(4-trifluoromethoxy-benzenesulfonyl)-piperazine-2-carboxylic acid (2-oxo-1-propyl-1,2-dihydro-pyridin-4-ylmethyl)-amide] here?
A: Its IC50 is greater than 1000 nM.

Q: What about the IC50 [2] of the same compound?
A: Its IC50 is 100 to 1000 nM.

Q: `CCCN1CCC(CNC(=O)[C@H]2CN(C(C)=O)CCN2S(=O)(=O)c2ccc(OC(F)(F)F)cc2)CC1` [Example 681, (R)-4-acetyl-1-(4-trifluoromethoxy-benzenesulfonyl)-piperazine-2-carboxylic acid (1-propyl-piperidin-4-ylmethyl)-amide] was tested. Which IC50 [1] did it give?
A: Its IC50 is greater than 1000 nM.

Q: And the IC50 [2]?
A: The IC50 was greater than 1000 nM.

Q: How did the IC50 [1] turn out when `CC(=O)N1CCN(S(=O)(=O)c2ccc(OC(F)(F)F)cc2)[C@@H](C(=O)NCCc2ccccc2O)C1` [Example 682, (R)-4-acetyl-1-(4-trifluoromethoxy-benzenesulfonyl)-piperazine-2-carboxylic acid [2-(2-hydroxy-phenyl)-ethyl]-amide] was run?
A: The IC50 was greater than 1000 nM.

Q: And the IC50 [2]?
A: The IC50 was greater than 1000 nM.

Q: Which IC50 [1] does the source give for `CCC(F)(F)c1ccc(CNC(=O)[C@H]2CN(c3cnc4cncnc4n3)CCN2S(=O)(=O)c2ccc(Br)cc2)cc1` [Example 683, (R)-1-(4-bromo-benzenesulfonyl)-4-pteridin-7-yl-piperazine-2-carboxylic acid 4-(1,1-difluoro-propyl)-benzylamide] here?
A: The IC50 was less than 100 nM.

Q: And the IC50 [2]?
A: The IC50 was less than 100 nM.

Q: Which results are given for `CCC(F)(F)c1ccc(CNC(=O)[C@H]2CN(c3cnc4cc(Br)ccc4n3)CCN2S(=O)(=O)c2ccc(OC(F)(F)F)cc2)cc1` [Example 684, (R)-4-(6-bromo-quinoxalin-2-yl)-1-(4-trifluoromethoxy-benzenesulfonyl)-piperazine-2-carboxylic acid 4-(1,1-difluoro-propyl)-benzylamide]?
A: IC50 [1]: 100 to 1000 nM; IC50 [2]: 100 to 1000 nM

Q: With `CCC(F)(F)c1ccc(CNC(=O)[C@H]2CN(c3cnc4ccc(Br)cc4n3)CCN2S(=O)(=O)c2ccc(OC(F)(F)F)cc2)cc1` [Example 685, (R)-4-(7-bromo-quinoxalin-2-yl)-1-(4-trifluoromethoxy-benzenesulfonyl)-piperazine-2-carboxylic acid 4-(1,1-difluoro-propyl)-benzylamide] as the compound, how does the IC50 [1] read?
A: Its IC50 is 100 to 1000 nM.

Q: And the IC50 [2]?
A: The IC50 was 100 to 1000 nM.

Q: What does the source list for `CCC(F)(F)c1ccc(CNC(=O)[C@H]2CN(c3cnc4cncnc4n3)CCN2S(=O)(=O)c2ccc(C(F)(F)F)cc2)cc1` [Example 686, (R)-4-pteridin-7-yl-1-(4-trifluoromethyl-benzenesulfonyl)-piperazine-2-carboxylic acid 4-(1,1-difluoro-propyl)-benzylamide]?
A: IC50 [1]: < 100 nM; IC50 [2]: < 100 nM

Q: How did the IC50 [1] turn out when `CCCc1ccc(CNC(=O)[C@H]2CN(c3cnc(C(=O)O)cn3)CCN2S(=O)(=O)c2ccc(Br)cc2)cc1` [Example 687, (R)-4-(4-bromo-benzenesulfonyl)-3-(4-propyl-benzylcarbamoyl)-3,4,5,6-tetrahydro-2H-[1,2′]bipyrazinyl-5′-carboxylic acid] was run?
A: The IC50 was less than 100 nM.

Q: And the IC50 [2]?
A: Its IC50 is less than 100 nM.

Q: What does the source list for `CCC(F)(F)c1ccc(CNC(=O)[C@H]2CN(c3cnc4cc(Cl)ccc4n3)CCN2S(=O)(=O)c2ccc(OC(F)(F)F)cc2)cc1` [Example 688, (R)-4-(6-chloro-quinoxalin-2-yl)-1-(4-trifluoromethoxy-benzenesulfonyl)-piperazine-2-carboxylic acid 4-(1,1-difluoro-propyl)-benzylamide]?
A: IC50 [1]: 100 to 1000 nM; IC50 [2]: 100 to 1000 nM

Q: Which IC50 [1] does the source give for `CC(C)(C)c1ccc(CNC(=O)[C@H]2CN(c3cnc4cnccc4n3)CCN2S(=O)(=O)c2ccc(OC(F)(F)F)cc2)cc1` [Example 689, (R)-4-pyrido[3,4-b]pyrazin-2-yl-1-(4-trifluoromethoxy-benzenesulfonyl)-piperazine-2-carboxylic acid 4-tert-butyl-benzylamide] here?
A: Its IC50 is less than 100 nM.

Q: And the IC50 [2]?
A: Its IC50 is less than 100 nM.

Q: Which IC50 [1] does the source give for `CCC(F)(F)c1ccc(CNC(=O)[C@H]2CN(c3cnc4nsnc4n3)CCN2S(=O)(=O)c2ccc(OC(F)(F)F)cc2)cc1` [Example 691, (R)-4-[1,2,5]thiadiazolo[3,4-b]pyrazin-5-yl-1-(4-trifluoromethoxy-benzenesulfonyl)-piperazine-2-carboxylic acid 4-(1,1-difluoro-propyl)-benzylamide] here?
A: The IC50 was less than 100 nM.

Q: What about the IC50 [2] of the same compound?
A: Its IC50 is less than 100 nM.
